The source of these data is PMC8749467, “A new ALK inhibitor overcomes resistance to first‐ and second‐generation inhibitors in NSCLC” (EMBO Molecular Medicine, 2021).

Like-named read-outs stand apart in the source and are kept apart here.

A short description of data set [1]: Pharmacokinetics in ICR mice.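 On all read-outs here: drug levels in collected samples measured by LC-MS/MS.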 Format: in vivo. The note with it: for concentration at […] / concentration at 0.25 h / concentration at 0.5 h / concentration at 1 h / concentration at 2 h / concentration at 4 h / concentration at 8 h / concentration at 24 h: ICR, blood, read-out: Blood drug concentration; for concentration at […]: 0.083 h; for MRT inf: read-out: MRT(0-∞); for Vd: read-out: Vz.
Protocol: Then the samples were quantified by LC-MS/MS, and data analysis was conducted using WinNonlin V6.3. IV = intravenous injection, PO = oral delivery, Tmax = time of maximum plasma concentration, Cmax = maximum plasma concentration, AUC = area under the curve (measure of exposure), T1/2 = half life, CL = plasma clearance, Vz = volume of distribution, F = oral bioavailability.

A further data set has as its system kinase panels. The note with it: cited from earlier work.
In a further data set the test system is EML4-ALK Ba/F3 cells. Description: Cell survival assay (MTS). The note with it: EML4-ALK Ba/F3, 48 h.
The subject of data set [2] is parental (wild-type) Ba/F3 cells. Description: Cell survival assay (MTS). Format: cell-based, murine. The note with it: Mus musculus, BaF3, 48 h.
Protocol: (§1) The murine Pro‐B cell line Ba/F3 cells were provided by Jianming Zhang from Shanghai Jiaotong University. All cells were authenticated by short tandem repeat testing and tested negative for mycoplasma contamination using Luminescent Mycoplasma Detection Kit (Beyotime, Shanghai, China). […] All of these cell lines were maintained at 37°C and 5% CO2.
(§2) Cell viability was determined by MTS assay (Promega).
Setting [3] is: mouse, plasma, IV, 5 mg/kg, ICR mice.
Where [4] appears, read: mouse, plasma, IV, 30 mg/kg, ICR mice.
[5] abbreviates: mouse, plasma, IV, 60 mg/kg, ICR mice.
Setting [6] is: mouse, plasma, PO, 10 mg/kg, ICR mice.
Setting [7] is: reported data ref Huber et al, 2014.

Protocol for EML4-ALK Ba/F3 cells: as §1, §2

For orientation: AUC(0-inf) means total exposure, with the tail of the curve extrapolated. High values mean more exposure, low ones less exposure. The AUC(0-t) is exposure summed from dosing to a finite time, without extrapolation to infinity. Read a high AUC(0-t) as more exposure. What is called Cmax is the highest concentration seen after dosing. One may read the Tmax as the time from dosing to the highest level. As usually defined, the clearance is a measure of how efficiently the substance is removed, as volume per time. For orientation: half-life means the time in which the quantity being followed falls by half. What is called bioavailability is dose-corrected exposure relative to a reference, in per cent. `COc1cc2c(cc1Nc1nc(Nc3ccccc3S(=O)(=O)C(C)C)c3[nH]ccc3n1)N(C(=O)CN(C)C)CC2` [XMU-MP-5]: in data set [1] (mouse, IV, 5 mg/kg, mice), the concentration at […] worked out at 4300 ng/mL, the concentration at 0.25 h stood at 2430 ng/mL, the concentration at 0.5 h was 1530 ng/mL and the concentration at 1 h amounted to 613 ng/mL. Also, in data set [1] (mouse, IV, 5 mg/kg, mice), the concentration at 2 h stood at 308 ng/mL, the concentration at 4 h amounted to 72.8 ng/mL, the concentration at 8 h is 28.7 ng/mL and the concentration at 24 h worked out at 2.09 ng/mL. In data set [1] (mouse, IV, 30 mg/kg, mice), the concentration at […] stood at 8260 ng/mL, the concentration at 0.25 h was 5430 ng/mL, the concentration at 0.5 h was determined as 3870 ng/mL and the concentration at 1 h was determined as 2990 ng/mL. Further, in data set [1] (mouse, IV, 30 mg/kg, mice), the concentration at 2 h amounted to 2060 ng/mL, the concentration at 4 h came out at 688 ng/mL, the concentration at 8 h is 171 ng/mL and the concentration at 24 h was determined as 17.9 ng/mL. In data set [1] (mouse, IV, 60 mg/kg, mice), the concentration at […] worked out at 12400 ng/mL, the concentration at 0.25 h was 7190 ng/mL, the concentration at 0.5 h was determined as 6430 ng/mL and the concentration at 1 h was 5430 ng/mL. For the same compound, in data set [1] (mouse, IV, 60 mg/kg, mice), the concentration at 2 h stood at 2910 ng/mL, the concentration at 4 h is 2580 ng/mL, the concentration at 8 h turned out to be 555 ng/mL and the concentration at 24 h amounted to 29.6 ng/mL. In addition, the “dose dependence of blood drug concentrations” value in data set [1] (IV, 5, 30 and 60 mg/kg, mice) is recorded as “linear increase”. In data set [1] (setting [3]), this compound came in with a total exposure AUC(0-inf) of 3310 ng·h/mL, an AUC(0-t) of 3300 ng·h/mL, a C0 of 5720 ng/mL and a Cmax of 4300 ng/mL. In data set [1] (setting [3]), the time of peak concentration (Tmax) came out at 0.08 h, the clearance was 25.2 mL/min/kg, the half-life was 3.99 h and the MRT inf was found to be 1.74 h. Further, in data set [1] (setting [3]), the Vd was 8.7 L/kg. In data set [1] (setting [4]), the AUC(0-inf) was 13200 ng·h/mL, the AUC(0-t) turned out to be 13100 ng·h/mL, the C0 turned out to be 10200 ng/mL and the clearance is 37.8 mL/min/kg. Besides, in data set [1] (setting [4]), the half-life was 4.93 h, the MRT inf came out at 2.95 h and the Vd was 6.7 L/kg. In data set [1] (setting [5]), this compound had an AUC(0-inf) of 26400 ng·h/mL, an area under the curve AUC(0-t) of 26200 ng·h/mL, a C0 of 16300 ng/mL and a clearance of 37.8 mL/min/kg. Moreover, in data set [1] (setting [5]), the half-life is 4.01 h, the MRT inf is 3.39 h and the Vd stood at 7.71 L/kg. Moreover, in data set [1] (setting [6]), the AUC(0-inf) is 1270 ng·h/mL, the exposure AUC(0-t) is 1210 ng·h/mL, the highest concentration (Cmax) was 474 ng/mL and the time to peak (Tmax) came to 0.5 h. Besides, in data set [1] (setting [6]), the half-life was 1.53 h and the MRT inf was 3.08 h. Also, the bioavailability in data set [1] (mouse, plasma, PO, 10 mg/kg, ICR mice, read-out: F (oral bioavailability)) amounted to 18.3%.

As usually defined, the IC50 is the concentration that gives 50% inhibition. Consider `COc1cc(N2CCC(N3CCN(C)CC3)CC2)ccc1Nc1ncc(Cl)c(Nc2ccccc2P(C)(C)=O)n1` [Brigatinib, brigatinib], for which the “S(10)” value in the data set with kinase panels (reported data ref Zhang et al, 2016) was 0.34. Moreover, the midpoint of inhibition in the data set on EML4-ALK Ba/F3 cells (Mus musculus, BaF3, 48 h), the IC50, lay at 17.3 nM.

Take `Cc1cc(Nc2ncc(Cl)c(Nc3ccccc3S(=O)(=O)C(C)C)n2)c(OC(C)C)cc1C1CCNCC1` [Ceritinib, ceritinib]: in the data set on kinase panels (reported data ref Jang et al, 2017), the “S(10)” value is on record as 0.19. The same compound gave a 50% inhibitory concentration (IC50) in the data set on EML4-ALK Ba/F3 cells (Mus musculus, BaF3, 48 h) of 1.2 nM.

The compound `C[C@H]1Oc2cc(cnc2N)-c2c(nn(C)c2C#N)CN(C)C(=O)c2ccc(F)cc21` [Lorlatinib, lorlatinib] showed an IC50 with EML4-ALK Ba/F3 cells of 1.5 nM.

Take `CCc1cc2c(cc1N1CCC(N3CCOCC3)CC1)C(C)(C)c1[nH]c3cc(C#N)ccc3c1C2=O` [Alectinib, alectinib]: the “S(10)” value in the data set with kinase panels (reported data ref Sakamoto et al, 2011) is 0.07.

In the case of `C[C@@H](Oc1cc(-c2cnn(C3CCNCC3)c2)cnc1N)c1c(Cl)ccc(F)c1Cl` [Crizotinib, crizotinib], in data set [2], the IC50 was 1120 nM. Also, in the data set on kinase panels (setting [7]), the “S(35)” value is 0.21 and the “number of kinases with ctrl ≤35%” value is given as 94.
